Laboratory results reported in patent US8309550B2, “Kinase inhibitors and their use as pharmaceutical agents” (Shanghai Genomics, Inc., priority 2011, dated 2012).
Like-named read-outs stand apart in the source and are kept apart here.

Assays:
CDK1/cyclinB = biological target: T1, CDK1/cyclinB (Homo sapiens, UniProt P06493); assay: Z'-LYTE kinase assay CDK1/cyclinB; type: biochemical
T1 construct: purchased Invitrogen PV3292
Outline: (§1)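 Z′-LYTE FRET assay with recombinant human enzymes; CDK1/cyclinB and CDK5/p35 at 0.8 ng/reaction on Ser/Thr 12 peptide. Compound and kinase incubated 1 hr at room temperature in 20 μM ATP, HEPES pH 7.5, MgCl2, EGTA, Brij-35, then developed 1 hr. Phosphorylation derived from 445/520 nm emission ratio (400 nm excitation); IC50 from sigmoid curve fit.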

CDK2/cyclinA = biological target: T2, CDK2/cyclinA (Homo sapiens, UniProt P24941); assay: Z'-LYTE kinase assay CDK2/cyclinA; type: biochemical
T2 construct: purchased Invitrogen PV3267
Outline: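 Recombinant human CDK2/cyclinA (Invitrogen PV3267) at 8 ng/reaction was incubated with Z′-LYTE™ Ser/Thr 12 Peptide and ATP in 384-well plates holding diluted test compounds for 1 hr at room temperature. Buffer contained 20 μM ATP, HEPES pH 7.5, 5 mM MgCl2, 0.5 mM EGTA and 0.005% Brij-35. IC50 came from sigmoid curve fitting in Origin 6.0.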

CDK5/p35 = biological target: T3, CDK5/p35 (Homo sapiens, UniProt Q00535); assay: Z'-LYTE kinase assay CDK5/p35; type: biochemical
T3 construct: purchased Invitrogen PV3000
T3 sequence (Q00535 whole entry): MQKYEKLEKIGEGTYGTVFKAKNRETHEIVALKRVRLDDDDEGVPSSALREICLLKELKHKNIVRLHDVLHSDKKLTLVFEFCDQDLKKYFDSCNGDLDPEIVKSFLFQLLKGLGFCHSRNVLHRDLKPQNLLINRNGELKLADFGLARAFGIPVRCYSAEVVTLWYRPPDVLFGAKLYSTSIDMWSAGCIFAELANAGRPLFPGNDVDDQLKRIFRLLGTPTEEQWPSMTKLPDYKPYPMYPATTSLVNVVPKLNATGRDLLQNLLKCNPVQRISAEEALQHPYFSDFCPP
T3 sequence (Q15078 whole entry partner): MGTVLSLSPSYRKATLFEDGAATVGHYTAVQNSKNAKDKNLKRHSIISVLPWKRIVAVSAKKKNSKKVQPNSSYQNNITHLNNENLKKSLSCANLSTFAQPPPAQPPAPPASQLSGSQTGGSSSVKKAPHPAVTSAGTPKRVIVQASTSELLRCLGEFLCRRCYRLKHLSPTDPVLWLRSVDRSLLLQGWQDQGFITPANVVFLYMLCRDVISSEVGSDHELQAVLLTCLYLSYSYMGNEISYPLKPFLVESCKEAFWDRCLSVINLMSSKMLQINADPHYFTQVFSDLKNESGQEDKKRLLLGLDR
Outline: as §1

Aurora A = biological target: T4, Aurora A (Homo sapiens, UniProt O14965); assay: Z'-LYTE kinase assay Aurora A; type: biochemical
T4 construct: purchased Invitrogen PV3612
T4 sequence (O14965 1-403): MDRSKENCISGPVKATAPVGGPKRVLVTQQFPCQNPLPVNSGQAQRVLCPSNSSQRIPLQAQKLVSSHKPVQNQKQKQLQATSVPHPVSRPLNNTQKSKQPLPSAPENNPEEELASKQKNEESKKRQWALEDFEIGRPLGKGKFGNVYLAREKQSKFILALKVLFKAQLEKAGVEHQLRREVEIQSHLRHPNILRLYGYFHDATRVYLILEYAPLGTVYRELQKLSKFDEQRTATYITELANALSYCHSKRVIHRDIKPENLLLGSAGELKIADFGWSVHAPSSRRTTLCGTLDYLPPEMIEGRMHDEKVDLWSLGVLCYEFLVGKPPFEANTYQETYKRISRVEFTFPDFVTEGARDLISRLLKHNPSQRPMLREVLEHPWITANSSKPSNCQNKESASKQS
Outline: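 Recombinant human Aurora A (PV3612, Invitrogen) was assayed with a Z′-LYTE™ kinase kit at 16 ng/reaction using Ser/Thr 1 Peptide substrate. Enzyme, peptide and ATP were added to 384-well plates with diluted compounds and incubated 1 hr at room temperature in buffer containing 20 μM ATP, HEPES pH 7.5, 5 mM MgCl2, 0.5 mM EGTA and 0.005% Brij-35.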

Aurora B = Aurora B (Homo sapiens, UniProt Q96GD4); assay: Kinase assay Aurora B (Table I); type: biochemical
Chain of Aurora B (Q96GD4 whole entry): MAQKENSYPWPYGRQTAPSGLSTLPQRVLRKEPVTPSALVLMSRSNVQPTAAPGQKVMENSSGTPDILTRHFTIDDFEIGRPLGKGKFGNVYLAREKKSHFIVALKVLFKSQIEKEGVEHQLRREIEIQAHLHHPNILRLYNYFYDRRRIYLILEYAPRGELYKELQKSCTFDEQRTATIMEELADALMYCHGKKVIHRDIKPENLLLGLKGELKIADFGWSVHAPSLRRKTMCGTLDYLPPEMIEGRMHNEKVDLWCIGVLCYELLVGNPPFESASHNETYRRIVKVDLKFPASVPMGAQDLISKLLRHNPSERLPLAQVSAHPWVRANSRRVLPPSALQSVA

H460-luc = assay: 72 h MTT cytotoxicity assay H460-luc; type: cell-based; conditions: Homo sapiens
From the text: (§2) MIT cytotoxicity assay. The compounds of the invention were subjected to a standard cellular proliferation assay using human cell lines. HeLa cells (Human cervix adenocarcinoma cell line, ATCC NO, CCL-2); A549 cells (Human lung carcinoma cells line, ATCC NO, CCL-185); U2OS cells (Human osteosarcoma cell line, ATCC NO, HTB-96); Eca-109 cells (Human esophageal carcinoma cell line); HepG2 (Human hepatocellular liver carcinoma cell line, ATCC NO, HB-8065); K562 cells (Human chronic myelogenous leukemia cell line, ATCC NO, CCL-243); SK-MEL-28 (Human malignant melanoma cell line, ATCC NO, HTB-72); Molt-4 (Human acute lymphoblastic leukemia cell line, ATCC NO, CRL-1582); H460 (Human large cell lung cancer cell line, ATCC NO, HTB-177); MDA-MB-231 (Human breast adenocarcinoma cell line, ATCC NO, HTB-26); MCF7 (Human breast adenocarcinoma cell line, ATCC NO, HTB-22); ACHN (Human renal cell adenocarcinoma cell line, ATCC NO, CRL-1611); PC-3M (Human prostate adenocarcinoma cell line, ATCC NO CRL-1435); HL60 (Human acute promyelocytic leukemia cell line, ATCC NO, CCL-240); THP-1 (Human acute monocytic leukemia, ATCC NO, TIB-202); Jurkat (Human acute T cell leukemia cell line, ATCC NO, CRL-2063); HCT-116 (Human colorectal carcinoma cell line, ATCC NO, CCL-247); HT-29 (Human colorectal adenocarcinoma cell line, ATCC NO, HTB-38™); WI-38 (Human normal lung cell line, ATCC NO, CCL-75); MRC-5 (Human normal lung cell line, ATCC NO, CCL-171).
(§3) HepG2, MDA-MB-231, WI-38 and MRC-5 cells were obtained from Shanghai Institute of Cell Biology, Chinese Academy of Sciences (Shanghai 200031, China). A549, HeLa, K562, MCF7, ACHN, H460, U2OS, Eca-109, MCF7, HL60, THP-1, Jurkat, HCT-116, HT-29, PC-3M, SK-MEL-28, Molt-4, H460 and […] cells were purchased from ATCC (American Type Culture Collection, USA).
(§4) Standard 72 h MTT (thiazolye blue; 3-[4,5-dimethylthiazol-2-yl]-2,5-diphenyltetrazolium bromide) assays were performed. Briefly, the cell lines used in this study were recovered and cultured according to the conditions recommended. 4000 cells per well were seeded into 96-well plates according to doubling time and incubated overnight at 37° C. Compounds were prepared in DMSO and a ½ dilution series in 100 μl cell culture media, added to cells (in duplicates) with the final DMSO concentration of 0.025%, and incubated for 72 hrs at 37° C. MTT solution (5 mg/ml) was added at 10 μl per well and incubated in the dark at 37° C. for 4 hr. Culture medium and MTT solution was removed. MTT dye was solubilised with 100 μl per well of DMSO with agitation. Absorbance was read at 562 nm and data analyzed using Sigmoid curve-fitting software Origin 6.0 (MicroCal, LLC, USA) to determine IC50 value.

PC-3M-luc = assay: 72 h MTT cell viability PC-3M-luc; type: cell-based; conditions: Homo sapiens
From the text: as §2, §3, §4

[1] = Table III, read-out: Target biochemical activity IC50 CDK1
[2] = read-out: Kinase inhibition, IC50 CDK1B
[3] = Table III, read-out: Target biochemical activity IC50 CDK2
[4] = read-out: Kinase inhibition, IC50 CDK2A
[5] = Table III, read-out: Target biochemical activity IC50 CDK5
[6] = read-out: Kinase inhibition, IC50 CDK5/p35
[7] = Table III, read-out: Target biochemical activity IC50 Aurora A
[8] = read-out: Kinase inhibition, IC50 Aurora A
[9] = Table III, read-out: Target biochemical activity IC50 Aurora B
[10] = read-out: Kinase inhibition, IC50 Aurora B
[11] = NCI-H460-Luc, H460-luc, 72 hrs, read-out: Cytotoxicity, MTT 72 hrs, IC50 H460-luc
[12] = H460, Table III, read-out: Cellular effect in mammalian cells IC50 H460

T1 sequence (P06493 whole entry): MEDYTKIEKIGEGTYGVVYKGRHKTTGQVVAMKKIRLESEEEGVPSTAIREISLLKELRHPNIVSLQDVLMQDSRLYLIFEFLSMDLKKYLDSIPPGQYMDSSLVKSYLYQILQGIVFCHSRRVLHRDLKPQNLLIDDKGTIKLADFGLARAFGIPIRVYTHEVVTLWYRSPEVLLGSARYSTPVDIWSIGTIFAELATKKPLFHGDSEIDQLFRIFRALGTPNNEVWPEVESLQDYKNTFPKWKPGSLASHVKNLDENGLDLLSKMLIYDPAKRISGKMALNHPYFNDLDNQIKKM
T1 sequence (P14635 whole entry partner): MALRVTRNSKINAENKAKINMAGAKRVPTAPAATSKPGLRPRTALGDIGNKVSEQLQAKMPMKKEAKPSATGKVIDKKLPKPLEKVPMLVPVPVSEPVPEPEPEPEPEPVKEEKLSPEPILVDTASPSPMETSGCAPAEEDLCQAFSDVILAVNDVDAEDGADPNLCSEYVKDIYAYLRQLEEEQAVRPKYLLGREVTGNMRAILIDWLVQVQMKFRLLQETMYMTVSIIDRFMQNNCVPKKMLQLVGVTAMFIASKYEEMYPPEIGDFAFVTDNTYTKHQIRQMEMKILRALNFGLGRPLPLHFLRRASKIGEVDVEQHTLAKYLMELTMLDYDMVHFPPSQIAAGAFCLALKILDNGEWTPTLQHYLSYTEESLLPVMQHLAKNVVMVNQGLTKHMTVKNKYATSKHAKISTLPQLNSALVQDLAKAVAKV

Structure (SMILES)	IC50 (CDK1/cyclinB; [1])	IC50 (CDK1/cyclinB; [2])	IC50 (CDK2/cyclinA; [3])	IC50 (CDK2/cyclinA; [4])	IC50 (CDK5/p35; [5])	IC50 (CDK5/p35; [6])	IC50 (Aurora A; [7])	IC50 (Aurora A; [8])	IC50 (Aurora B; [9])	IC50 (Aurora B; [10])	IC50 (H460-luc; [11])	IC50 (H460-luc; [12])	IC50 (PC-3M-luc)
CCn1cc(-c2ccnc(Nc3cccc(S(N)(=O)=O)c3)n2)c2cccnc21 [Compound 18, 3-(4-(1-Ethyl-1H-pyrrolo[2,3-b]pyridin-3-yl)pyrimidin-2-ylamino)benzenesulfonamide]	624 nM	624 nM	3 nM	3 nM	271 nM	271 nM	30 nM	30 nM	700 nM	700 nM	1270 nM	1270 nM	3550 nM
CCCn1cc(-c2ccnc(Nc3cccc(S(N)(=O)=O)c3)n2)c2cccnc21 [Compound 22, 3-(4-(1-Propyl-1H-pyrrolo[2,3-b]pyridin-3-yl)pyrimidin-2-ylamino)benzenesulfonamide]		450 nM		190 nM		400 nM		8 nM		3600 nM	1110 nM		3190 nM
CCCn1cc(-c2ccnc(Nc3cccc(S(N)(=O)=O)c3)n2)c2ccncc21 [SG51]	0.4 nM		0.5 nM		0.5 nM		50 nM		59 nM			< 100 nM	
CCCn1cc(-c2ccnc(Nc3ccc(S(N)(=O)=O)cc3)n2)c2ccncc21 [Compound 112, 4-(4-(1-Propyl-1H-pyrrolo[2,3-c]pyridin-3-yl)pyrimidin-2-ylamino)benzenesulfonamide]		0.4 nM		10 nM		1.3 nM		820 nM		1.6 nM	20 nM		27 nM
CCCn1cc(-c2ccnc(Nc3cccc(O)c3)n2)c2cccnc21 [Compound 16, 3-(4-(1-Propyl-1H-pyrrolo[2,3-b]pyridin-3-yl)pyrimidin-2-ylamino)phenol]		1360 nM		6 nM		2320 nM		> 10000 nM		1250 nM	4060 nM		5110 nM
CCCn1cc(-c2ccnc(Nc3cccc(S(N)(=O)=O)c3)n2)c2ccncc21 [Compound 111, 3-(4-(1-Propyl-1H-pyrrolo[2,3-c]pyridin-3-yl)pyrimidin-2-ylamino)benzenesulfonamide]		0.4 nM		0.5 nM		0.5 nM		50 nM		59 nM	6 nM		6 nM
CCCn1cc(-c2ccnc(Nc3ccc(O)cc3)n2)c2cccnc21 [Compound 15, 4-(4-(1-Propyl-1H-pyrrolo[2,3-b]pyridin-3-yl)pyrimidin-2-ylamino)phenol]		1670 nM		28 nM		2240 nM		210 nM		670 nM	4980 nM		10500 nM
